Tests used:
ABUTH (Velvetleaf) [1] = assay: Postemergence herbicidal evaluation; assay type: in vivo, Abutilon theophrasti; details: postemergence
Method in brief: (§1)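 Rate range approx. 0.0156–0.500 kg/ha. Foliar application at 40 psi to ~2-week seedlings; surfactant 0.5% TWEEN 20 in 50/50 acetone/water. Evaluation 4–5 wk post-treatment by 0–9 visual injury score, means of replicate tests.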

[2] = system: IPOHE (Morningglory, Ivyleaf); assay: Postemergence herbicidal evaluation; assay type: in vivo, Ipomoea hederacea; details: postemergence
Method in brief: as §1

SETVI (Foxtail, Green) = assay: Postemergence herbicidal evaluation; assay type: in vivo, Setaria viridis; details: postemergence
Method in brief: as §1

[3] = system: GLXMAW (Soybean, Williams); assay: Postemergence herbicidal evaluation; assay type: in vivo, Glycine max, (L.) Merr. cv Williams; details: postemergence
Method in brief: as §1

ZEAMX (Corn, Field) = assay: Postemergence herbicidal evaluation; assay type: in vivo, Zea mays; details: postemergence
Method in brief: as §1

ABUTH (Velvetleaf) [4] = assay: Preemergence herbicidal evaluation; assay type: in vivo, Abutilon theophrasti; details: rated 4-5 weeks after treatment
Method in brief: (§2)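 Preemergence soil application of compound, sprayed in aqueous acetone at rates equivalent to about 0.0156 to 0.500 kg per hectare onto freshly sown cups. Plant response was judged by eye on a 0-9 scale four to five weeks later.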

AMBEL (Ragweed, Common) = assay: Preemergence herbicidal evaluation; assay type: in vivo, Ambrosia artemisifolia; details: rated 4-5 weeks after treatment
Method in brief: as §2

CASOB (Sicklepod) = assay: Preemergence herbicidal evaluation; assay type: in vivo, Cassia obtusifolia; details: rated 4-5 weeks after treatment
From the text: (§3) Results of herbicide evaluation are expressed on a rating scale (0-9). The scale is based upon a visual observation of plant stand, vigor, malformation, size, chlorosis and overall plant appearance as compared with a control.
(§4) The preemergence herbicidal activity of the test compounds of the present invention is exemplified by the following tests in which the seeds of a variety of monocotyledonous and dicotyledonous plants are separately mixed with potting soil and planted on top of approximately one inch of soil in separate pint cups. After planting, the cups are sprayed with the selected aqueous acetone solution containing test compound in sufficient quantity to provide the equivalent of about 0.0156 to 0.500 kg per hectare of test compound per cup. The treated cups are then placed on greenhouse benches, watered and cared for in accordance with conventional greenhouse procedures. From four to five weeks after treatment, the tests are terminated and each cup is examined and rated according to the rating system provided in Example 37.
(§5) The compounds evaluated are reported by compound number given in Example 37.

[5] = system: IPOHE (Morningglory, Ivyleaf); assay: Preemergence herbicidal evaluation; assay type: in vivo, Ipomoea hederacea; details: rated 4-5 weeks after treatment
From the text: as §3, §4, §5

ECHCG (Barnyardgrass) = assay: Preemergence herbicidal evaluation; assay type: in vivo, Echinochloa crus-galli; details: rated 4-5 weeks after treatment
Method in brief: as §2

[6] = system: ECHORC (Watergrass (Calif.)); assay: Preemergence weed control under flooded paddy conditions; assay type: in vivo, Echinochloa oryzoides; details: rated 3-4 weeks after treatment
Method in brief: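 Seeds or propagules sown in silt loam kept flooded 1.5-3 cm; compounds in 50/50 acetone/water pipetted into flood water at about 0.0313 to 0.500 kg/ha. Greenhouse; visual 0-9 rating versus untreated control 3-4 weeks after treatment.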

CYPSE (Flatsedge) = assay: as above; assay type: in vivo, Cyperus serotinus; details: rated 3-4 weeks after treatment
Protocol: as §3
Preemergence herbicidal activity under flooded paddy conditions is determined as follows: plant seeds or propagating organs are planted in the top 0.5 cm of silt loam soil in 32 oz. plastic containers with a diameter of 10.5 cm and no drainage holes. Water is added to these containers and maintained at 1.5 to 3 cm above the soil surface for the duration of the experiment. The test compounds are applied as aqueous/acetone mixtures 50/50 v/v pipetted directly into the flood water to give the equivalent of about 0.0313 to 0.500 kg/ha of active ingredient. The treated containers are placed on greenhouse benches and cared for in accordance with conventional greenhouse procedures. Three to four weeks after treatment, the test is terminated and each container is examined and herbicidal effect rated according to the rating system provided in Example 37. The compounds evaluated are reported by compound number given in Example 37.
Plant species employed in this example are reported by header abbreviation, common name and scientific name.

Cn1c(C(F)(F)F)cc(=O)n(-c2cc(N=C3SCC(=O)N3CC(=O)OC3CCCC3)c(Cl)cc2F)c1=O [Compound 120, Cyclopentyl 2-{{2-chloro-5-[3,6-dihydro-3-methyl-2,6-dioxo-4-(trifluoromethyl)-1(2H)-pyrimidinyl]-4-fluorophenyl}imino}-4-oxo-3-thiazolidineacetate]
Herbicidal rating ABUTH (ABUTH (Velvetleaf) [1]; rate 0.0156 kg/ha): 9.0
Herbicidal rating ABUTH (ABUTH (Velvetleaf) [1]; rate 0.0313 kg/ha): 9.0
Herbicidal rating ABUTH (ABUTH (Velvetleaf) [1]; rate 0.0625 kg/ha): 9.0
Herbicidal rating IPOHE ([2]; rate 0.0156 kg/ha): 9.0
Herbicidal rating IPOHE ([2]; rate 0.0313 kg/ha): 9.0
Herbicidal rating IPOHE ([2]; rate 0.0625 kg/ha): 9.0
Herbicidal rating SETVI (SETVI (Foxtail, Green); rate 0.0156 kg/ha): 4.0
Herbicidal rating SETVI (SETVI (Foxtail, Green); rate 0.0313 kg/ha): 9.0
Herbicidal rating SETVI (SETVI (Foxtail, Green); rate 0.0625 kg/ha): 9.0
Herbicidal rating GLXMAW ([3]; rate 0.0156 kg/ha): 7.5
Herbicidal rating GLXMAW ([3]; rate 0.0313 kg/ha): 9.0
Herbicidal rating GLXMAW ([3]; rate 0.0625 kg/ha): 9.0
Herbicidal rating ZEAMX (ZEAMX (Corn, Field); rate 0.0156 kg/ha): 6.0
Herbicidal rating ZEAMX (ZEAMX (Corn, Field); rate 0.0313 kg/ha): 7.0
Herbicidal rating ZEAMX (ZEAMX (Corn, Field); rate 0.0625 kg/ha): 8.0
Preemergence herbicidal rating ABUTH (ABUTH (Velvetleaf) [4]; rate 0.0156 kg/ha): 0.0
Preemergence herbicidal rating ABUTH (ABUTH (Velvetleaf) [4]; rate 0.0313 kg/ha): 9.0
Preemergence herbicidal rating ABUTH (ABUTH (Velvetleaf) [4]; rate 0.0625 kg/ha): 9.0
Preemergence herbicidal rating ABUTH (ABUTH (Velvetleaf) [4]; rate 0.1250 kg/ha): 9.0
Preemergence herbicidal rating ABUTH (ABUTH (Velvetleaf) [4]; rate 0.2500 kg/ha): 9.0
Preemergence herbicidal rating AMBEL (AMBEL (Ragweed, Common); rate 0.0156 kg/ha): 0.0
Preemergence herbicidal rating AMBEL (AMBEL (Ragweed, Common); rate 0.0313 kg/ha): 0.0
Preemergence herbicidal rating AMBEL (AMBEL (Ragweed, Common); rate 0.0625 kg/ha): 3.0
Preemergence herbicidal rating AMBEL (AMBEL (Ragweed, Common); rate 0.1250 kg/ha): 4.0
Preemergence herbicidal rating AMBEL (AMBEL (Ragweed, Common); rate 0.2500 kg/ha): 4.0
Preemergence herbicidal rating CASOB (CASOB (Sicklepod); rate 0.0156 kg/ha): 0.0
Preemergence herbicidal rating CASOB (CASOB (Sicklepod); rate 0.0313 kg/ha): 0.0
Preemergence herbicidal rating CASOB (CASOB (Sicklepod); rate 0.0625 kg/ha): 3.0
Preemergence herbicidal rating CASOB (CASOB (Sicklepod); rate 0.1250 kg/ha): 4.0
Preemergence herbicidal rating CASOB (CASOB (Sicklepod); rate 0.2500 kg/ha): 4.0
Preemergence herbicidal rating IPOHE ([5]; rate 0.0156 kg/ha): 0.0
Preemergence herbicidal rating IPOHE ([5]; rate 0.0313 kg/ha): 0.0
Preemergence herbicidal rating IPOHE ([5]; rate 0.0625 kg/ha): 0.0
Preemergence herbicidal rating IPOHE ([5]; rate 0.1250 kg/ha): 4.0
Preemergence herbicidal rating IPOHE ([5]; rate 0.2500 kg/ha): 9.0
Preemergence herbicidal rating ECHCG (ECHCG (Barnyardgrass); rate 0.0156 kg/ha): 0.0
Preemergence herbicidal rating ECHCG (ECHCG (Barnyardgrass); rate 0.0313 kg/ha): 0.0
Preemergence herbicidal rating ECHCG (ECHCG (Barnyardgrass); rate 0.0625 kg/ha): 0.0
Preemergence herbicidal rating ECHCG (ECHCG (Barnyardgrass); rate 0.1250 kg/ha): 0.0
Preemergence herbicidal rating ECHCG (ECHCG (Barnyardgrass); rate 0.2500 kg/ha): 2.0
herbicidal effect rating, ECHORC ([6]; 0.0313 kg/ha): 7.0
herbicidal effect rating, ECHORC ([6]; 0.0625 kg/ha): 8.0
herbicidal effect rating, ECHORC ([6]; 0.1250 kg/ha): 9.0
herbicidal effect rating, ECHORC ([6]; 0.2500 kg/ha): 9.0
herbicidal effect rating, CYPSE (CYPSE (Flatsedge); 0.0313 kg/ha): 0.0
herbicidal effect rating, CYPSE (CYPSE (Flatsedge); 0.0625 kg/ha): 0.0
herbicidal effect rating, CYPSE (CYPSE (Flatsedge); 0.1250 kg/ha): 0.0
herbicidal effect rating, CYPSE (CYPSE (Flatsedge); 0.2500 kg/ha): 3.5

— patent publication US20020137929A1, “1 - (3-heterocyclylphenyl) isothiourea, -isourea, -guanidine and -amidine herbicidal agents” (Intellectual Property Department, BASF Aktiengesellschaft, priority 1998, published 2002)
